Results published in US9000027B2, “Chk1 suppresses a caspase-2 apoptotic response to DNA damage that bypasses p53, bcl-2 and caspase-3” (Dana-Farber Cancer Institute, Inc., priority 2008, dated 2015).

Assays:
[1] = target: MK-2 (Homo sapiens, UniProt P49137); assay: Western blot of MK-2 activity (Hsp-27 Ser82 phosphorylation) in irradiated HeLa cells; assay type: cell-based; design: endogenous in cells; host or cells: HeLa
Description: (§1) Protein extract (5-60 μg) was added to 4× gel loading buffer and 10× denaturing solution (Invitrogen) in appropriate proportions, and samples were incubated at 70° C. for 10 min. Samples were run at 200V for 1 hr on a 4-12% Bis-tris gradient gel (Invitrogen). After electrophoresis, samples were transferred for 1.5 hr (350 mA) to a Nitrocellulose membrane (Millipore) using a submerged transfer apparatus (Bio-Rad). Membranes were then blocked with 5% milk in Tris-buffered saline with 0.1% tween (TBST) and probed overnight at 4° C. with the following antibodies: anti-zebrafish Chk1 (diluted 1:200), anti-zebrafish Chk2 (1:200), anti-P-Cdc2 (1:1000), anti-actin (1:2000), anti-human ATR (1:500) and Stressgen anti-human-caspase-3 (1:500) for zebrafish immunoblots; and anti-caspase-2 (1:200), Upstate anti-caspase-3 (1:500), anti-P-ATM (1:500), anti-ATM (1:500), Santa Cruz anti-human Chk1 (1:1000), Santa Cruz anti-human Chk2 (1:1000), anti-P-Chk1 (1:500), anti-P-Chk2 (1:500), anti-P-H2A.X (1:2000), anti-P-cdc25C (1:1000), anti-P-HSP27 (1:1000), anti-HSP27 (1:1000), anti-P-Cdc2 (1:1000), anti-p53 (1:1000) and anti-GAPDH (1:5000) for immunoblots of human tumor cell lysates. Detailed references for all primary antibodies can be found in the ‘Antibodies’ section elsewhere herein.

[2] = test system: HeLa cells; assay: Cell viability assay (CellTiter-Glo) after IR; assay type: cell-based, human; conditions: 10 Gy, 72 hpIR
Description: For the cell viability assay, Tg(BCL2)^− and Tg(BCL2)^+ H218 cells were seeded into black 96-well plates (BD Bioscience) at a density of 1000 cells per well on day 1. 24-well sets were treated with DMSO or Gö6976 (1 μM), and plates were exposed to 0 or 10 Gy IR on day 2. After 72 hr, cellular viability was measured with the CellTiter-Glo Luminescent Cell Viability Assay kit (Promega) according to the manufacturer's instructions. Cellular viability for each well was calculated as a percentage of the mean viability of DMSO-treated, non-irradiated cells. The mean cellular viability and SEM were calculated and plotted with GraphPad Prism version 3 (GraphPad Software, San Diego Calif., USA). Each viability experiment was performed twice.

[3] = test system: ATM; assay: Western blot of ATM activity (Chk2 phosphorylation at Thr68) in HeLa cells; assay type: cell-based, human; conditions: 10 Gy IR+Gö6976 1 μM
Description: as §1

[4] = test system: p53^e7/e7;chk1^MO cells grafted into p53^e7/e7 hosts; assay: Blastula-cell transplantation (genetic chimeras), TUNEL after IR; assay type: in vivo, zebrafish; conditions: 12.5 Gy, n=102
Excerpt: To determine whether the Chk1-antagonized pathway functions cell autonomously or non-cell autonomously, we generated genetic chimeras (see cell transplantation procedure in FIG. 3D and assay validation in FIG. 14). While p53^e7/e7;chk1^MO cells grafted into p53^e7/e7 hosts often stained TUNEL-positive after IR (39%, n=102), neighboring host cells were virtually never seen that stained TUNEL-positive (FIG. 3E, upper panels). In the reciprocal experiment, p53^e7/e7 cells transplanted into p53^e7/e7;chk1^MO hosts remained TUNEL-negative within an otherwise TUNEL-positive environment (FIG. 3E, lower panels). Therefore, IR-induced TUNEL reactivity of transplanted cells strictly depends on Chk1 dosage, occurs irrespective of the cellular environment, and has very little, if any, influence on neighboring cells. The Chk1-suppressed apoptotic pathway thus functions in a cell-autonomous manner.
Zebrafish embryos were fixed in 4% paraformaldehyde (PFA) overnight at 4° C. and subsequently stored in methanol at −20° C. for at least 2 hr. After rehydration at room temperature in PBST (1×PBS, 0.1% Tween-20), embryos were treated with proteinase K (10 μg/mL) in PBS for 15 min, followed by a 20-min postfix in 4% PFA at room temperature. […] Tagged DNA was detected with sheep anti-digoxigenin-fluorescein or sheep anti-digoxigenin-rhodamine conjugated Fab fragments. […]

MK-2, sequence (P49137 whole entry): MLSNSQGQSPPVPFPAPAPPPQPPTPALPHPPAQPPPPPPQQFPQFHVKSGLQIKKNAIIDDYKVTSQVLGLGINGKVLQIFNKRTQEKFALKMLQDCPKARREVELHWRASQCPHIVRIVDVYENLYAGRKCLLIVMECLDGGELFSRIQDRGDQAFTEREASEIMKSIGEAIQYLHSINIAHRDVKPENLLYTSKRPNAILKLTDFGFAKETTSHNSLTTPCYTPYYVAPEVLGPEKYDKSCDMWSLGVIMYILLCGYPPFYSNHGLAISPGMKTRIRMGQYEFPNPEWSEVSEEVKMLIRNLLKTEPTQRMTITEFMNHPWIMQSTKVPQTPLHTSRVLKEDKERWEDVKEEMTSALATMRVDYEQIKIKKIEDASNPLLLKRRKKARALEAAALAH

Molecule	MK-2 activity ([1]; Gö6976 1 μM)	HSP-27 phosphorylation at serine 82 (MK-2 site) ([1]; Gö6976, increasing concentrations, 10 Gy, 24 hpIR)	radiosensitizing effect (cell killing) ([2]; Gö6976 1 μM)	radiosensitization of HeLa cells ([2]; regardless of BCL2 transgene)	phosphorylated Chk2 at Thr68 (readout for ATM activity) [3]	grafted cells staining TUNEL-positive after IR [4]
Cn1c2ccccc2c2c3c(c4c5ccccc5n(CCC#N)c4c21)CNC3=O [Gö6976]	an increase in MK-2 activity	did not block HSP-27 phosphorylation at serine 82	~50%	~2 fold	synergistic increases	–
chk1 MO: morpholino against zebrafish chk1 atg/5'UTR, aggcacagccattatgcaatcttcg (SEQ ID NO: 11) (AGGCACAGCCATTATGCAATCTTCG; all phosphorodiamidate morpholino (PMO))	–	–	–	–	–	39%
